Tests used:
[1] = tested on: PAF-induced hypotension in the rat; experiment: Reversal of PAF-induced hypotension in anaesthetised rats; format: in vivo, rat (male Sprague-Dawley); conditions: iv, i.v. bolus during PAF infusion 100 ng/kg/min i.v., mean blood pressure fall of 50 mmHg, read-out: ED50 (dose to cause a 50% reversal of the hypotensive PAF response)
Procedure: (§1) Compounds of general formula I inhibit PAF-induced functions in both the cellular and tissue levels by changing the PAF binding to its specific receptor site. The ability of compounds of general formula I to inhibit the binding of PAF to its specific receptor binding site on human platelet plasma membranes was measured according to Pharmacological Example 1. The ability of compounds of general formula I to reverse the hypotension caused by an infusion of PAF in rats was measured according to Pharmacology Example 2.
Male Sprague-Dawley rats (300-350 gms) were anaesthetised with a mixture of sodium pentobarbitone, 22.5 mg.kg^-1 and thiopental 62.5 mg.kg^-1. Through a midline incision in the neck, the trachea was cannulated and the animals breathed spontaneously. A carotid artery was cannulated for the measurement of blood pressure and this signal was used to trigger a rate meter to measure heart rate. Both jugular veins were cannulated: one for the infusion of PAF and the other for the bolus administration of test compounds.
PAF, 100 ng.kg^-1. min^-1 was infused i.v. until a sustained fall in mean blood pressure of 50 mmHg was achieved. […] The peak of this reversal was measured and the dose to cause a 50% reversal of the hypotensive PAF response (ED50) calculated by straight line interpolation and the results are presented in Table 2. Also presented in Table 2 is the result for a comparative example (N-cyclohexyl-N-methyl 4-(lH-imidazo[4,5-c]pyridin-1-ylmethyl)benzamide. This compound (a PAF antagonist described in EP-A-02606130) is not within the scope of the invention.

[2] = molecular target: T1, PAF receptor (specific receptor binding site on human platelet plasma membranes) (Homo sapiens, UniProt P25105); experiment: Inhibition of 3H-PAF binding to human platelet plasma membrane (receptor binding, filtration); conditions: 0.5 nM 3H-PAF, 0° C., 1 hour incubation
T1 construct: from tissue; host or cells: human platelets (platelet concentrates from a hospital blood bank), lysed plasma membranes
Procedure: as §1
The inhibition of ^3 H-PAF binding to human platelet plasma membrane by compounds of general formula I was determined by isotopic labelling and filtration techniques. Platelet concentrates were obtained from a hospital blood bank. These platelet concentrates (500-2500 ml.) were centrifuged at 800 rpm for 10 minutes in a SORVALL RC3B centrifuge to remove the red blood cells present. (The word SORVALL is a trade mark.) The supernatant was subsequently centrifuged at 3,000 rpm in a SORVALL RC3B centrifuge to pellet the platelets present. […]
The assay was conducted by preparing a series of Tris-buffered solutions of the selected antagonist of predetermined concentrations. […] Each washed residue was dried under vacuum on a sampling manifold and placed into vials containing 20 ml of OPTIPHASE MP scintillation fluid and the radioactivity counted in a liquid scintillation counter. […]

T1 sequence (P25105 whole entry): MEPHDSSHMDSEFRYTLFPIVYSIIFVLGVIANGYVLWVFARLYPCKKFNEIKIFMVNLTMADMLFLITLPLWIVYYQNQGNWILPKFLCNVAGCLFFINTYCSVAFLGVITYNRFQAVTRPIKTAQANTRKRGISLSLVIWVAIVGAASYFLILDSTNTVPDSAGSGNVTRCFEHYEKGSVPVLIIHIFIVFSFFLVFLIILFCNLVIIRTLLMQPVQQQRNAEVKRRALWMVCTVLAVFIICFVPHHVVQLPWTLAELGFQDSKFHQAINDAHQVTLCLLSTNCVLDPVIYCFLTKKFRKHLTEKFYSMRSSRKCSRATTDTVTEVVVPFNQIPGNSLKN

| Structure (SMILES) | ED50 [1] [µg/kg] | IC50 [2] [µM] |
| --- | --- | --- |
| CCOC(=O)[C@H](CC(C)C)N(C)C(=O)c1ccc(Cn2c(C)nc3cnccc32)cc1 [2 (B), N-Methyl-N-L-leucinyl ethyl ester 4-(1H-2-methylimidazo[4,5-c]pyridylmethyl)benzamide] | 5 | 0.01 |
| CN(C(=O)c1ccc(Cn2cnc3cnccc32)cc1)C1CCCCC1 [Comparative Example, N-cyclohexyl-N-methyl 4-(lH-imidazo[4,5-c]pyridin-1-ylmethyl)benzamide, reference compound] | 150 | 10 |
| CCOC[C@H](CC(C)C)N(C)C(=O)c1ccc(Cn2c(C)nc3cnccc32)cc1 [3 (B), N-Methyl-N-L-leucinol ethyl ether 4-(lH-2-methylimidazo[4,5-c]pyridylmethyl)benzamide] | 6 | – |
